Earlier results in patent EP0398588A1, “Macrolide antibiotics” (ELI LILLY AND COMPANY, priority 1989, dated 1990).

Test system: rats
Settings: rat, in vivo, po

For `O=C1C[C@@H]2OCC=C3CN4CC[C@]56c7ccccc7N1[C@H]5[C@H]2[C@H]3C[C@H]46` [strychnine], the MLD is listed as 5 mg/kg.
